Assay results as given in ChEMBL document CHEMBL5154681, “Small Amphiphilic Peptides: Activity Against a Broad Range of Drug-Resistant Bacteria and Structural Insight into Membranolytic Properties” (J Med Chem, 2022).
Values after ≈ are worked out from the molar mass of the structure shown. Square brackets hold non-standard residues; d marks the D form. Peptide text beside a SMILES is read from it. Bip = N[C@@H](Cc1ccc(-c2ccccc2)cc1)C(=O)O; Dip = N[C@H](C(=O)O)C(c1ccccc1)c1ccccc1; 2Nal = N[C@@H](Cc1ccc2ccccc2c1)C(=O)O

Experiments:
[1] = test system: Escherichia coli; test: Antibacterial activity against Escherichia coli ATCC 25922 incubated for 24 hrs by microtiter plate method; format: functional; conditions: Escherichia coli, ATCC 25922, 24 h, read-out: MIC
[2] = test system: Pseudomonas aeruginosa; test: Antibacterial activity against Pseudomonas aeruginosa ATCC 27883 incubated for 24 hrs by microtiter plate method; format: functional; conditions: Pseudomonas aeruginosa, ATCC 27883, 24 h, read-out: MIC
[3] = test system: Staphylococcus aureus; test: Antibacterial activity against methicillin resistant Staphylococcus aureus ATCC BAA-1556 incubated for 24 hrs by microtiter plate method; format: functional; conditions: Staphylococcus aureus, ATCC BAA-1556, 24 h, read-out: MIC
[4] = test system: Staphylococcus aureus; test: Antibacterial activity against Staphylococcus aureus ATCC 29213 incubated for 24 hrs by microtiter plate method; format: functional; conditions: Staphylococcus aureus, ATCC 29213, read-out: MIC
[5] = Hemolytic activity in human RBC assessed as hemolysis incubated for 2 hrs by spectrophotometer analysis; format: toxicity, cell-based, Erythrocyte; conditions: human red blood cells (erythrocytes)

## N=C(N)NCCC[C@H](NC(=O)[C@H](CCCNC(=N)N)NC(=O)[C@@H](N)CCCNC(=N)N)C(=O)N[C@@H](Cc1ccc(-c2ccccc2)cc1)C(=O)N[C@@H](Cc1ccc(-c2ccccc2)cc1)C(=O)N[C@@H](Cc1ccc(-c2ccccc2)cc1)C(=O)O (H-RRR[Bip][Bip][Bip]-OH)
[1]
  MIC: > 100 µg/mL
[2]
  MIC: > 100 µg/mL
[3]
  MIC: 50 µg/mL (≈ 43.2 µM)
[4]
  MIC: 50 µg/mL (≈ 43.2 µM)

## N=C(N)NCCC[C@H](NC(=O)[C@H](CCCNC(=N)N)NC(=O)[C@@H](N)CCCNC(=N)N)C(=O)N[C@H](C(=O)N[C@H](C(=O)N[C@H](C(=O)O)C(c1ccccc1)c1ccccc1)C(c1ccccc1)c1ccccc1)C(c1ccccc1)c1ccccc1 (H-RRR[Dip][Dip][Dip]-OH)
[5]
  HC50 at 2 h: 120 µg/mL
[1]
  MIC: 6.2 µg/mL (≈ 5.36 µM)
[2]
  MIC: 25 µg/mL (≈ 21.6 µM)
[3]
  MIC: 6.2 µg/mL (≈ 5.36 µM)
[4]
  MIC: 6.2 µg/mL (≈ 5.36 µM)

## N=C(N)NCCC[C@H](NC(=O)[C@H](CCCNC(=N)N)NC(=O)[C@H](Cc1ccc2ccccc2c1)NC(=O)[C@H](Cc1ccc2ccccc2c1)NC(=O)[C@H](CCCNC(=N)N)NC(=O)[C@@H](N)CCCNC(=N)N)C(=O)N[C@@H](Cc1ccc2ccccc2c1)C(=O)O (H-RR[2Nal][2Nal]RR[2Nal]-OH)
[5]
  HC50 at 2 h: 195 µg/mL
[1]
  MIC: 25 µg/mL (≈ 20.3 µM)
[2]
  MIC: 25 µg/mL (≈ 20.3 µM)
[3]
  MIC: 25 µg/mL (≈ 20.3 µM)
[4]
  MIC: 12.5 µg/mL (≈ 10.1 µM)

## N=C(N)NCCC[C@H](NC(=O)[C@H](CCCNC(=N)N)NC(=O)[C@@H](NC(=O)[C@@H](NC(=O)[C@H](CCCNC(=N)N)NC(=O)[C@@H](N)CCCNC(=N)N)C(c1ccccc1)c1ccccc1)C(c1ccccc1)c1ccccc1)C(=O)N[C@H](C(=O)O)C(c1ccccc1)c1ccccc1 (H-RR[Dip][Dip]RR[Dip]-OH)
[5]
  HC50 at 2 h: 240 µg/mL
[1]
  MIC: 25 µg/mL (≈ 19 µM)
[2]
  MIC: 25 µg/mL (≈ 19 µM)
[3]
  MIC: 12.5 µg/mL (≈ 9.52 µM)
[4]
  MIC: 12.5 µg/mL (≈ 9.52 µM)

## N=C(N)NCCC[C@H](NC(=O)[C@H](Cc1ccc2ccccc2c1)NC(=O)[C@H](Cc1ccc2ccccc2c1)NC(=O)[C@H](CCCNC(=N)N)NC(=O)[C@H](CCCNC(=N)N)NC(=O)[C@H](Cc1ccc2ccccc2c1)NC(=O)[C@@H](N)CCCNC(=N)N)C(=O)O (H-R[2Nal]RR[2Nal][2Nal]R-OH)
[5]
  HC50 at 2 h: 205 µg/mL
[1]
  MIC: 25 µg/mL (≈ 20.3 µM)
[2]
  MIC: 50 µg/mL (≈ 40.5 µM)
[3]
  MIC: 25 µg/mL (≈ 20.3 µM)
[4]
  MIC: 12.5 µg/mL (≈ 10.1 µM)

## N=C(N)NCCC[C@H](NC(=O)[C@@H](NC(=O)[C@@H](NC(=O)[C@H](CCCNC(=N)N)NC(=O)[C@H](CCCNC(=N)N)NC(=O)[C@@H](NC(=O)[C@@H](N)CCCNC(=N)N)C(c1ccccc1)c1ccccc1)C(c1ccccc1)c1ccccc1)C(c1ccccc1)c1ccccc1)C(=O)O (H-R[Dip]RR[Dip][Dip]R-OH)
[5]
  HC50 at 2 h: 220 µg/mL
[1]
  MIC: 25 µg/mL (≈ 19 µM)
[2]
  MIC: 100 µg/mL (≈ 76.2 µM)
[3]
  MIC: 25 µg/mL (≈ 19 µM)
[4]
  MIC: 12.5 µg/mL (≈ 9.52 µM)

## N=C(N)NCCC[C@@H]1NC(=O)[C@H](CCCNC(=N)N)NC(=O)[C@H](CCCNC(=N)N)NC(=O)[C@H](Cc2ccc3ccccc3c2)NC(=O)[C@H](Cc2ccc3ccccc3c2)NC(=O)[C@H](CCCNC(=N)N)NC1=O (cyclo([2Nal][2Nal]RRRR))
[5]
  HC50 at 2 h: 125 µg/mL
[1]
  MIC: 50 µg/mL (≈ 49.1 µM)
[2]
  MIC: 50 µg/mL (≈ 49.1 µM)
[3]
  MIC: 6.2 µg/mL (≈ 6.08 µM)
[4]
  MIC: 6.2 µg/mL (≈ 6.08 µM)

## N=C(N)NCCC[C@@H]1NC(=O)[C@H](CCCNC(=N)N)NC(=O)[C@H](Cc2ccc3ccccc3c2)NC(=O)[C@H](Cc2ccc3ccccc3c2)NC(=O)[C@H](Cc2ccc3ccccc3c2)NC(=O)[C@H](CCCNC(=N)N)NC1=O (cyclo([2Nal][2Nal][2Nal]RRR))
[5]
  HC50 at 2 h: 50 µg/mL
[1]
  MIC: 25 µg/mL (≈ 23.6 µM)
[2]
  MIC: 50 µg/mL (≈ 47.2 µM)
[3]
  MIC: 6.2 µg/mL (≈ 5.85 µM)
[4]
  MIC: 3.1 µg/mL (≈ 2.92 µM)

## N=C(N)NCCC[C@@H]1NC(=O)[C@H](CCCNC(=N)N)NC(=O)[C@H](Cc2ccc(-c3ccccc3)cc2)NC(=O)[C@H](Cc2ccc(-c3ccccc3)cc2)NC(=O)[C@H](Cc2ccc(-c3ccccc3)cc2)NC(=O)[C@H](CCCNC(=N)N)NC1=O (cyclo([Bip][Bip][Bip]RRR))
[1]
  MIC: > 100 µg/mL
[2]
  MIC: > 100 µg/mL
[3]
  MIC: 50 µg/mL (≈ 43.9 µM)
[4]
  MIC: 50 µg/mL (≈ 43.9 µM)

## N=C(N)NCCC[C@@H]1NC(=O)[C@H](CCCNC(=N)N)NC(=O)[C@H](CCCNC(=N)N)NC(=O)[C@H](Cc2ccc(-c3ccccc3)cc2)NC(=O)[C@H](Cc2ccc(-c3ccccc3)cc2)NC(=O)[C@H](Cc2ccc(-c3ccccc3)cc2)NC(=O)[C@H](CCCNC(=N)N)NC1=O (cyclo([Bip][Bip][Bip]RRRR))
[1]
  MIC: > 100 µg/mL
[2]
  MIC: 25 µg/mL (≈ 19.3 µM)
[3]
  MIC: 6.2 µg/mL (≈ 4.79 µM)
[4]
  MIC: 3.1 µg/mL (≈ 2.39 µM)

## N=C(N)NCCC[C@@H]1NC(=O)[C@H](CCCNC(=N)N)NC(=O)[C@H](CCCNC(=N)N)NC(=O)[C@H](Cc2ccc(-c3ccccc3)cc2)NC(=O)[C@H](Cc2ccc(-c3ccccc3)cc2)NC(=O)[C@H](Cc2ccc(-c3ccccc3)cc2)NC(=O)[C@H](Cc2ccc(-c3ccccc3)cc2)NC(=O)[C@H](CCCNC(=N)N)NC1=O (cyclo([Bip][Bip][Bip][Bip]RRRR))
[1]
  MIC: > 100 µg/mL
[2]
  MIC: > 100 µg/mL
[3]
  MIC: > 100 µg/mL
[4]
  MIC: 50 µg/mL (≈ 32.9 µM)
